According to ChEMBL document CHEMBL3826948, “Alkyl substituted aminal derivatives of HCV NS5A inhibitor MK-8742” (Bioorg Med Chem Lett, 2016):

Experiments:
Settings in all cases: Hepatitis C virus
[1] = Inhibition of NS5A in HCV genotype 4a assessed as replicon RNA levels by real time PCR based cell based assay; design: species or system Hepatitis C virus subtype 4a
[2] = Inhibition of NS5A in HCV genotype 2a assessed as replicon RNA levels by real time PCR based cell based assay; design: species or system Hepatitis C virus subtype 2a
[3] = Inhibition of NS5A in HCV genotype 2b assessed as replicon RNA levels by real time PCR based cell based assay; design: species or system Hepatitis C virus subtype 2b
[4] = Inhibition of NS5A in HCV genotype 1a assessed as replicon RNA levels by real time PCR based cell based assay; design: species or system Hepatitis C virus subtype 1a
[5] = Inhibition of NS5A in HCV genotype 3a assessed as replicon RNA levels by real time PCR based cell based assay; design: species or system Hepatitis C virus subtype 3a
[6] = Inhibition of NS5A in HCV genotype 1b assessed as replicon RNA levels by real time PCR based cell based assay; design: species or system Hepatitis C virus subtype 1b

Row | Compound | EC50 [1] [nM] | EC50 [2] [nM] | EC50 [3] [nM] | EC50 [4] [nM] | EC50 [5] [nM] | EC50 [6] [nM]
1 | CCCCCC1CC2CCC1CC2C1Oc2cc(-c3cnc([C@@H]4CCCN4C(=O)[C@@H](NC(=O)OC)C(C)C)[nH]3)ccc2-c2cc3cc(-c4cnc([C@@H]5CCCN5C(=O)[C@@H](NC(=O)OC)C(C)C)[nH]4)ccc3n21 (mixture of isomers) |  |  | 2 | 0.02 | > 17 | 
2 | COC(=O)CCC1Oc2cc(-c3cnc([C@@H]4CCCN4C(=O)[C@@H](NC(=O)OC)C(C)C)[nH]3)ccc2-c2cc3cc(-c4cnc([C@@H]5CCCN5C(=O)[C@@H](NC(=O)OC)C(C)C)[nH]4)ccc3n21 (mixture of isomers) |  |  | 9 | 0.02 | 4 | 
3 | COC(=O)N[C@H](C(=O)N1CCC[C@H]1c1ncc(-c2ccc3c(c2)OC(CC2CC2)n2c-3cc3cc(-c4cnc([C@@H]5CCCN5C(=O)[C@@H](NC(=O)OC)C(C)C)[nH]4)ccc32)[nH]1)C(C)C (mixture of isomers) |  |  | 9 | 0.01 |  | 0.01
4 | COC(=O)N[C@H](C(=O)N1CCC[C@H]1c1ncc(-c2ccc3c(c2)OC(CC2CCCC2)n2c-3cc3cc(-c4cnc([C@@H]5CCCN5C(=O)[C@@H](NC(=O)OC)C(C)C)[nH]4)ccc32)[nH]1)C(C)C (mixture of isomers) |  | 4 |  |  |  | 
5 | COCC1CC1C1Oc2cc(-c3cnc([C@@H]4CCCN4C(=O)[C@@H](NC(=O)OC)C(C)C)[nH]3)cc(F)c2-c2cc3cc(-c4cnc([C@@H]5CCCN5C(=O)[C@@H](NC(=O)OC)C(C)C)[nH]4)ccc3n21 (stereo partly drawn) |  |  | 4 | 0.009 | 0.7 | 
6 | COC(=O)N[C@H](C(=O)N1CCC[C@H]1c1ncc(-c2ccc3c(c2)OC(CCC#N)n2c-3cc3cc(-c4cnc([C@@H]5CCCN5C(=O)[C@@H](NC(=O)OC)C(C)C)[nH]4)ccc32)[nH]1)C(C)C (mixture of isomers) |  |  | 8 | 0.03 | 1 | 
7 | COC(=O)N[C@H](C(=O)N1CCC[C@H]1c1ncc(-c2cc(F)c3c(c2)OC(C2CC2C(=O)O)n2c-3cc3cc(-c4cnc([C@@H]5CCCN5C(=O)[C@@H](NC(=O)OC)C(C)C)[nH]4)ccc32)[nH]1)C(C)C (stereo partly drawn) |  |  | 525 | 8 | 202 | 
8 | COC(=O)N[C@H](C(=O)N1CCC[C@H]1c1ncc(-c2cc(F)c3c(c2)OC(C2CC2(C)C)n2c-3cc3cc(-c4cnc([C@@H]5CCCN5C(=O)[C@@H](NC(=O)OC)C(C)C)[nH]4)ccc32)[nH]1)C(C)C (stereo partly drawn) |  |  |  | 0.03 |  | 
9 | COC(=O)N[C@H](C(=O)N1CCC[C@H]1c1ncc(-c2ccc3c(c2)OC(C2CCOCC2)n2c-3cc3cc(-c4cnc([C@@H]5CCCN5C(=O)[C@@H](NC(=O)OC)C(C)C)[nH]4)ccc32)[nH]1)C(C)C (mixture of isomers) | 0.04 | 0.03 |  | 0.009 | 0.8 | 0.004
10 | CNC(=O)C1CC1C1Oc2cc(-c3cnc([C@@H]4CCCN4C(=O)[C@@H](NC(=O)OC)C(C)C)[nH]3)cc(F)c2-c2cc3cc(-c4cnc([C@@H]5CCCN5C(=O)[C@@H](NC(=O)OC)C(C)C)[nH]4)ccc3n21 (stereo partly drawn) |  |  | 52 | 1 | 10 | 
11 | COC(=O)N[C@H](C(=O)N1CCC[C@H]1c1ncc(-c2cc(F)c3c(c2)OC(C2CC2C(=O)N(C)C)n2c-3cc3cc(-c4cnc([C@@H]5CCCN5C(=O)[C@@H](NC(=O)OC)C(C)C)[nH]4)ccc32)[nH]1)C(C)C (stereo partly drawn) |  |  | 9 | 0.1 | 4 | 
12 | COC(=O)N[C@H](C(=O)N1CCC[C@H]1c1ncc(-c2ccc3c(c2)OC(CCC(=O)O)n2c-3cc3cc(-c4cnc([C@@H]5CCCN5C(=O)[C@@H](NC(=O)OC)C(C)C)[nH]4)ccc32)[nH]1)C(C)C (mixture of isomers) |  |  | 124 | 8 | 33 | 

Now from value to compound:

Row | EC50 [1] [nM] | EC50 [2] [nM] | EC50 [3] [nM] | EC50 [4] [nM] | EC50 [5] [nM] | EC50 [6] [nM] | Compound
13 | 0.2 | 0.2 | 95 | 0.008 | 6 | 0.001 | COC(=O)N[C@H](C(=O)N1CCC[C@H]1c1ncc(-c2ccc3c(c2)cc2n3C3(CCCCC3)Oc3cc(-c4cnc([C@@H]5C[C@@H](F)CN5C(=O)[C@@H](NC(=O)OC)C(C)C)[nH]4)cc(F)c3-2)[nH]1)C(C)C
14 |  |  | > 17 | 0.006 | > 17 |  | COC(=O)N[C@H](C(=O)N1CCC[C@H]1c1ncc(-c2cc(F)c3c(c2)OC(C2CC24CCCC4)n2c-3cc3cc(-c4cnc([C@@H]5CCCN5C(=O)[C@@H](NC(=O)OC)C(C)C)[nH]4)ccc32)[nH]1)C(C)C (stereo partly drawn)
15 |  |  | 2 | 0.006 | 0.09 |  | COC(=O)N[C@H](C(=O)N1CCC[C@H]1c1ncc(-c2cc(F)c3c(c2)OC(C2CC2C)n2c-3cc3cc(-c4cnc([C@@H]5CCCN5C(=O)[C@@H](NC(=O)OC)C(C)C)[nH]4)ccc32)[nH]1)C(C)C (stereo partly drawn)
16 |  |  | 8 | 0.005 | 0.06 |  | COC(=O)N[C@H](C(=O)N1CCC[C@H]1c1ncc(-c2cc(F)c3c(c2)OC(C2CC2C#N)n2c-3cc3cc(-c4cnc([C@@H]5CCCN5C(=O)[C@@H](NC(=O)OC)C(C)C)[nH]4)ccc32)[nH]1)C(C)C (stereo partly drawn)
17 | 0.07 | 0.007 | 4 | 0.002 | 0.8 | 0.0008 | COC(=O)N[C@H](C(=O)N1CCC[C@H]1c1ncc(-c2ccc3c(c2)OC(C2CCC(F)(F)CC2)n2c-3cc3cc(-c4cnc([C@@H]5CCCN5C(=O)[C@@H](NC(=O)OC)C(C)C)[nH]4)ccc32)[nH]1)C(C)C (mixture of isomers)
18 | 0.04 | 0.03 | 44 | 0.002 | 0.6 | 0.0005 | COC(=O)N[C@H](C(=O)N1CCC[C@H]1c1ncc(-c2ccc3c(c2)cc2n3C3(CCC3)Oc3cc(-c4cnc([C@@H]5C[C@@H](F)CN5C(=O)[C@@H](NC(=O)OC)C(C)C)[nH]4)cc(F)c3-2)[nH]1)C(C)C
19 |  |  | 4 | 0.005 | 0.03 |  | COC(=O)N[C@H](C(=O)N1CCC[C@H]1c1ncc(-c2cc(F)c3c(c2)OC([C@H]2C[C@@H]2c2ccccc2)n2c-3cc3cc(-c4cnc([C@@H]5CCCN5C(=O)[C@@H](NC(=O)OC)C(C)C)[nH]4)ccc32)[nH]1)C(C)C (stereo partly drawn)
20 | 0.06 | 0.006 | 9 | 0.008 | 1 | 0.005 | COC(=O)N[C@H](C(=O)N1CCC[C@H]1c1ncc(-c2ccc3c(c2)OC(C2CCC2)n2c-3cc3cc(-c4cnc([C@@H]5CCCN5C(=O)[C@@H](NC(=O)OC)C(C)C)[nH]4)ccc32)[nH]1)C(C)C (mixture of isomers)
21 | 0.04 | 0.004 | 59 | 0.005 | 3 | 0.002 | COC(=O)N[C@H](C(=O)N1CCC[C@H]1c1ncc(-c2ccc3c(c2)cc2n3C3(CCCC3)Oc3cc(-c4cnc([C@@H]5C[C@@H](F)CN5C(=O)[C@@H](NC(=O)OC)C(C)C)[nH]4)cc(F)c3-2)[nH]1)C(C)C
22 | 0.04 | 0.003 | 1 | 0.005 | 0.8 | 0.002 | COC(=O)N[C@H](C(=O)N1CCC[C@H]1c1ncc(-c2ccc3c(c2)OC(C2CCCCC2)n2c-3cc3cc(-c4cnc([C@@H]5CCCN5C(=O)[C@@H](NC(=O)OC)C(C)C)[nH]4)ccc32)[nH]1)C(C)C (stereo partly drawn)
23 | 0.02 | 0.01 | 6 | 0.002 | 0.8 | 0.002 | COC(=O)N[C@H](C(=O)N1CCC[C@H]1c1ncc(-c2ccc3c(c2)OC(C(C)C)n2c-3cc3cc(-c4cnc([C@@H]5CCCN5C(=O)[C@@H](NC(=O)OC)C(C)C)[nH]4)ccc32)[nH]1)C(C)C (stereo partly drawn)
24 | 0.02 | 1 | 73 | 0.004 | 7 | 0.002 | COC(=O)N[C@H](C(=O)N1CCC[C@H]1c1ncc(-c2ccc3c(c2)OC(CC(C)(C)C)n2c-3cc3cc(-c4cnc([C@@H]5CCCN5C(=O)[C@@H](NC(=O)OC)C(C)C)[nH]4)ccc32)[nH]1)C(C)C (stereo partly drawn)
25 | 0.005 | 0.07 | 2 | 0.002 | 0.3 | 0.003 | COC(=O)N[C@H](C(=O)N1CCC[C@H]1c1ncc(-c2ccc3c(c2)OC(C2CCCC2)n2c-3cc3cc(-c4cnc([C@@H]5CCCN5C(=O)[C@@H](NC(=O)OC)C(C)C)[nH]4)ccc32)[nH]1)C(C)C (stereo partly drawn)
26 | 0.005 | 0.007 | 4 | 0.002 | 0.2 | 0.002 | CCCCC1Oc2cc(-c3cnc([C@@H]4CCCN4C(=O)[C@@H](NC(=O)OC)C(C)C)[nH]3)ccc2-c2cc3cc(-c4cnc([C@@H]5CCCN5C(=O)[C@@H](NC(=O)OC)C(C)C)[nH]4)ccc3n21 (stereo partly drawn)
27 | 0.02 | 0.003 | 3 | 0.003 | 0.3 | 0.002 | CCCC1Oc2cc(-c3cnc([C@@H]4CCCN4C(=O)[C@@H](NC(=O)OC)C(C)C)[nH]3)ccc2-c2cc3cc(-c4cnc([C@@H]5CCCN5C(=O)[C@@H](NC(=O)OC)C(C)C)[nH]4)ccc3n21 (stereo partly drawn)
28 | 0.02 | 0.008 | 10 | 0.0008 | 0.4 | 0.0007 | COC(=O)N[C@H](C(=O)N1CCC[C@H]1c1ncc(-c2ccc3c(c2)OC(CC(C)C)n2c-3cc3cc(-c4cnc([C@@H]5CCCN5C(=O)[C@@H](NC(=O)OC)C(C)C)[nH]4)ccc32)[nH]1)C(C)C (mixture of isomers)
29 | 0.04 | 0.09 |  | 0.006 | 3 | 0.002 | COC(=O)N[C@H](C(=O)N1CCC[C@H]1c1ncc(-c2ccc3c(c2)OC(CC2CCCCC2)n2c-3cc3cc(-c4cnc([C@@H]5CCCN5C(=O)[C@@H](NC(=O)OC)C(C)C)[nH]4)ccc32)[nH]1)C(C)C (mixture of isomers)
